target: T1, Receptor-type tyrosine-protein kinase FLT3 (Homo sapiens, UniProt P36888); assay: Inhibition of FLT3 by HTRF assay
T1 sequence (P36888 whole entry): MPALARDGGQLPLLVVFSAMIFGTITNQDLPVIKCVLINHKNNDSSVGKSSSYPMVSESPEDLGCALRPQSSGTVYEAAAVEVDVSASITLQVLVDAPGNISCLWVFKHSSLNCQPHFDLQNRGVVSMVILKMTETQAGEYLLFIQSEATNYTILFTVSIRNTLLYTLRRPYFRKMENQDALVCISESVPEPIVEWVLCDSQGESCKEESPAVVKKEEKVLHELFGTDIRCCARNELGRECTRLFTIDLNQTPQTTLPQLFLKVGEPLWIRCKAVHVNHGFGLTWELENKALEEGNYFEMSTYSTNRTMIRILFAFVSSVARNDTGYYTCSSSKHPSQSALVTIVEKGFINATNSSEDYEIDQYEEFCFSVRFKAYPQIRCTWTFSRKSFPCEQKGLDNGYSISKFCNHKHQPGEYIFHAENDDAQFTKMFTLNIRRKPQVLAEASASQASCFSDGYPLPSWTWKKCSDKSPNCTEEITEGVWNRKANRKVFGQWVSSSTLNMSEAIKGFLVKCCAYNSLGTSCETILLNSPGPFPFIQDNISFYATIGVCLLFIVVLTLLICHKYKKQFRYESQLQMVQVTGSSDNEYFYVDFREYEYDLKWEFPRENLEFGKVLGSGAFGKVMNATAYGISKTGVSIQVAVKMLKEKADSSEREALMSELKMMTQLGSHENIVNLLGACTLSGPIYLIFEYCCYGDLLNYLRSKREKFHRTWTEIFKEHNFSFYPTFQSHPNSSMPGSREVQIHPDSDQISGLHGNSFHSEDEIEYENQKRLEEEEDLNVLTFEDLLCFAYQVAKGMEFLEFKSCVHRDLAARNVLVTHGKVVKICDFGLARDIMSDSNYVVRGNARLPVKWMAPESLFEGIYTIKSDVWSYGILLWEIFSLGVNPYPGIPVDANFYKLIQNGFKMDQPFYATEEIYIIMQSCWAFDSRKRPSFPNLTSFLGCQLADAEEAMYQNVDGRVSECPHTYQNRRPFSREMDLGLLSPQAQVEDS

IC50, > 10 µM:
Cc1cc(Cl)cc2c1NC(=O)C2c1[nH]c2ccccc2c1N=O (centres undefined) [5'-Chloro-7'-methyl-1H,1'H-[2,3']biindolylidene-3,2'-dione 3-oxime]
O=Nc1c(C2C(=O)Nc3ccc(OC(F)(F)F)cc32)[nH]c2ccccc12 (centres undefined) [5'-Trifluoromethoxy-1H,1'H-[2,3']biindolylidene-3,2'-dione 3-oxime]
O=C1N=c2ccc([N+](=O)[O-])cc2=C1c1[nH]c2ccccc2c1O [(Z)-5'-Nitro-1H,1'H-[2,3']biindolylidene-3,2'-dione]
O=Nc1c(C2C(=O)Nc3ccc([N+](=O)[O-])cc32)[nH]c2ccc(Br)cc12 (centres undefined) [(Z)-5-Bromo-5'-nitro-1H,1'H-[2,3']biindolylidene-3,2'-dione 3-oxime]

Reference: BindingDB's records for doi:10.1016/j.bmcl.2010.01.039 (Institute of Science and Technology, 2010)
